{
  "source": "ChEMBL document CHEMBL1201862",
  "about": "“PubChem BioAssay data set” (2004)",
  "assay_in_all_cases": "NCI tumour cell line growth inhibition, 48 h",
  "key": {"UACC-62": {"system": "UACC-62"}, "CAKI-1": {"system": "CAKI-1"}, "ACHN": {"system": "ACHN"}, "M14": {"system": "M14"}, "SR": {"system": "SR"}, "HCC 2998": {"system": "HCC 2998"}, "TK-10": {"system": "TK-10"}, "T47D": {"system": "T47D"}, "SK-MEL-28": {"system": "SK-MEL-28"}, "HOP-92": {"system": "HOP-92"}, "A498": {"system": "A498"}, "HOP-62": {"system": "HOP-62"}, "NCI-H522": {"system": "NCI-H522"}, "SK-OV-3": {"system": "SK-OV-3"}, "SF-539": {"system": "SF-539"}, "OVCAR-8": {"system": "OVCAR-8"}, "SNB-75": {"system": "SNB-75"}, "RPMI-8226": {"system": "RPMI-8226"}, "NCI-H23": {"system": "NCI-H23"}, "HCT-15": {"system": "HCT-15"}, "EKVX": {"system": "EKVX"}, "RXF 393": {"system": "RXF 393"}, "786-0": {"system": "786-0"}, "COLO 205": {"system": "COLO 205"}, "SK-MEL-5": {"system": "SK-MEL-5"}, "K562": {"system": "K562"}, "SF-295": {"system": "SF-295"}, "Hs-578T": {"system": "Hs-578T"}, "U-251": {"system": "U-251"}, "A549": {"system": "A549"}, "PC-3": {"system": "PC-3"}, "KM12": {"system": "KM12"}, "HCT-116": {"system": "HCT-116"}, "NCI-H460": {"system": "NCI-H460"}, "MDA-MB-435": {"system": "MDA-MB-435"}, "NCI-H226": {"system": "NCI-H226"}, "MOLT-4": {"system": "MOLT-4"}, "NCI/ADR-RES": {"system": "NCI/ADR-RES"}, "LOX IMVI": {"system": "LOX IMVI"}, "HT-29": {"system": "HT-29"}, "SN12C": {"system": "SN12C"}, "MCF7": {"system": "MCF7"}, "SK-MEL-2": {"system": "SK-MEL-2"}, "OVCAR-4": {"system": "OVCAR-4"}, "SNB-19": {"system": "SNB-19"}, "SW-620": {"system": "SW-620"}, "OVCAR-5": {"system": "OVCAR-5"}, "IGROV-1": {"system": "IGROV-1"}, "BT-549": {"system": "BT-549"}, "UO-31": {"system": "UO-31"}, "UACC-257": {"system": "UACC-257"}, "Malme-3M": {"system": "Malme-3M"}, "HL-60": {"system": "HL-60"}, "CCRF-CEM": {"system": "CCRF-CEM"}, "OVCAR-3": {"system": "OVCAR-3"}, "SF-268": {"system": "SF-268"}, "DU-145": {"system": "DU-145"}, "MDA-MB-231": {"system": "MDA-MB-231"}},
  "note": "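Where inhibition never reached the appropriate level, the endpoint shown equals the highest concentration tested. Otherwise, values were interpolated linearly from a five-concentration, 48-hour dose response in 96-well plates. GI50: concentration for 50% inhibition of growth.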 Calls of active or inactive are those of the source. Rule as the data show it: active = GI50 up to about 1.1 µM and inactive = higher.",
  "data": [
    {"smiles": "N[C@@H]1c2c(Br)sc(Br)c2C(=O)[C@H]1Br", "values": [
      {"measurement": "GI50", "setting": "UACC-62", "value": "20.5 µM (inactive)"},
      {"measurement": "GI50", "setting": "CAKI-1", "value": "27.3 µM (inactive)"},
      {"measurement": "GI50", "setting": "ACHN", "value": "20.6 µM (inactive)"},
      {"measurement": "GI50", "setting": "M14", "value": "20.6 µM (inactive)"},
      {"measurement": "GI50", "setting": "SR", "value": "16.1 µM (inactive)"},
      {"measurement": "GI50", "setting": "HCC 2998", "value": "31.3 µM (inactive)"},
      {"measurement": "GI50", "setting": "TK-10", "value": "> 100 µM (inactive)"},
      {"measurement": "GI50", "setting": "T47D", "value": "30.2 µM (inactive)"},
      {"measurement": "GI50", "setting": "SK-MEL-28", "value": "28.5 µM (inactive)"},
      {"measurement": "GI50", "setting": "HOP-92", "value": "17.5 µM (inactive)"},
      {"measurement": "GI50", "setting": "A498", "value": "35.2 µM (inactive)"},
      {"measurement": "GI50", "setting": "HOP-62", "value": "50.4 µM (inactive)"},
      {"measurement": "GI50", "setting": "NCI-H522", "value": "14.7 µM (inactive)"},
      {"measurement": "GI50", "setting": "SK-OV-3", "value": "> 100 µM (inactive)"},
      {"measurement": "GI50", "setting": "SF-539", "value": "> 63.1 µM (inactive)"},
      {"measurement": "GI50", "setting": "OVCAR-8", "value": "20.5 µM (inactive)"},
      {"measurement": "GI50", "setting": "SNB-75", "value": "> 100 µM (inactive)"},
      {"measurement": "GI50", "setting": "RPMI-8226", "value": "7.45 µM (inactive)"},
      {"measurement": "GI50", "setting": "NCI-H23", "value": "24.8 µM (inactive)"},
      {"measurement": "GI50", "setting": "HCT-15", "value": 25.1, "unit": "µM"},
      {"measurement": "GI50", "setting": "EKVX", "value": "34.4 µM (inactive)"},
      {"measurement": "GI50", "setting": "RXF 393", "value": "22.1 µM (inactive)"},
      {"measurement": "GI50", "setting": "786-0", "value": "23.1 µM (inactive)"},
      {"measurement": "GI50", "setting": "COLO 205", "value": "1.88 µM (inactive)"},
      {"measurement": "GI50", "setting": "SK-MEL-5", "value": "2.6 µM (inactive)"},
      {"measurement": "GI50", "setting": "K562", "value": "> 28.3 µM (inactive)"},
      {"measurement": "GI50", "setting": "SF-295", "value": "> 70.6 µM (inactive)"},
      {"measurement": "GI50", "setting": "Hs-578T", "value": "54.6 µM (inactive)"},
      {"measurement": "GI50", "setting": "U-251", "value": "22.7 µM (inactive)"},
      {"measurement": "GI50", "setting": "A549", "value": "> 100 µM (inactive)"},
      {"measurement": "GI50", "setting": "PC-3", "value": "37.2 µM (inactive)"},
      {"measurement": "GI50", "setting": "KM12", "value": "26.4 µM (inactive)"},
      {"measurement": "GI50", "setting": "HCT-116", "value": "17.3 µM (inactive)"},
      {"measurement": "GI50", "setting": "NCI-H460", "value": "57.1 µM (inactive)"},
      {"measurement": "GI50", "setting": "MDA-MB-435", "value": "23 µM (inactive)"},
      {"measurement": "GI50", "setting": "NCI-H226", "value": "> 42.3 µM (inactive)"},
      {"measurement": "GI50", "setting": "MOLT-4", "value": "4.69 µM (inactive)"},
      {"measurement": "GI50", "setting": "NCI/ADR-RES", "value": "22.2 µM (inactive)"},
      {"measurement": "GI50", "setting": "LOX IMVI", "value": "15.7 µM (inactive)"},
      {"measurement": "GI50", "setting": "HT-29", "value": "21.7 µM (inactive)"},
      {"measurement": "GI50", "setting": "SN12C", "value": "24.9 µM (inactive)"},
      {"measurement": "GI50", "setting": "MCF7", "value": "36.7 µM (inactive)"},
      {"measurement": "GI50", "setting": "SK-MEL-2", "value": "> 100 µM (inactive)"},
      {"measurement": "GI50", "setting": "OVCAR-4", "value": "27.2 µM (inactive)"},
      {"measurement": "GI50", "setting": "SNB-19", "value": "45.9 µM (inactive)"},
      {"measurement": "GI50", "setting": "SW-620", "value": "18.7 µM (inactive)"},
      {"measurement": "GI50", "setting": "OVCAR-5", "value": "> 82.4 µM (inactive)"},
      {"measurement": "GI50", "setting": "IGROV-1", "value": "20.6 µM (inactive)"},
      {"measurement": "GI50", "setting": "BT-549", "value": "19.1 µM (inactive)"},
      {"measurement": "GI50", "setting": "UO-31", "value": "27.9 µM (inactive)"},
      {"measurement": "GI50", "setting": "UACC-257", "value": "18.6 µM (inactive)"},
      {"measurement": "GI50", "setting": "Malme-3M", "value": "21.7 µM (inactive)"},
      {"measurement": "GI50", "setting": "HL-60", "value": "2.42 µM (inactive)"},
      {"measurement": "GI50", "setting": "CCRF-CEM", "value": "2.02 µM (inactive)"},
      {"measurement": "GI50", "setting": "OVCAR-3", "value": "30.6 µM (inactive)"},
      {"measurement": "GI50", "setting": "SF-268", "value": "31.2 µM (inactive)"},
      {"measurement": "GI50", "setting": "DU-145", "value": "> 60.3 µM (inactive)"},
      {"measurement": "GI50", "setting": "MDA-MB-231", "value": "23.6 µM (inactive)"}
    ]}
  ]
}
